Structures can show the parent of a compound that is named as a salt.
Tests used:
[1] = tested on: Northern house mosquitoes (Culex pipiens); assay: Long-term spatial repellency, static air repellency chamber, filter papers air-dried 5 hours; type: in vivo; details: air-dried 5 hours; for pest or weed control at 0.5 %: Culex pipiens, 1 mL of 0.5% solution in acetone
Procedure: (§1) Northern house mosquitoes (Culex pipiens), a primary carrier of West Nile virus in eastern North America, were obtained from an established colony in the Medical Entomology Laboratory in the Department of Entomology at Iowa State University of Science and Technology, Ames Iowa. Mosquito rearing was performed by established protocols that are maintained by the Medical Entomology Laboratory. Repellency bioassays were performed with adult female mosquitoes that were 5-7 days post-emergent. […] Mosquitoes, prior to testing, were held at 27° C., 80% relative humidity, and on a 16:8 hr light:dark photoperiod.
(§2) Repellency bioassays were performed using a static air repellency chamber, which has been described in various publications by the Pesticide Toxicology Laboratory at Iowa State University of Science and Technology, Ames, Iowa Briefly, a 9-cm×60-cm glass tube was used to monitor the distribution of mosquitoes at 15 min, 30 min, 60 min, 90 min, 120 min, and 150 min after introducing mosquitoes into the static air repellency chamber. Treated filter papers were treated with 1 mL of 0.5% solution in acetone of the terpenoid analogs created in the lab and were exposed to ambient air for 5 hours before they were introduced into the spatial chamber for testing. This is a slight modification of the method described in Example 2, so as to evaluate the residual repellent character of these compounds on a treated surface after 5 hours. One end of the spatial chamber contained a treated filter paper, whereas the other (untreated) end of the spatial chamber was not treated with compound. Controls contained filter papers treated with acetone, the solvent used to make the 0.5% solutions. Each end of the repellency chamber was secured with a 100-mm Petri dish using celluloid tape. After securing the petri dishes with corresponding treated or untreated filter papers to the spatial chamber, mosquitoes were anesthetized with carbon dioxide, and approximately 20 female mosquitoes were placed into each repellency chamber for one replicate. The opening of the spatial repellency chamber was secured with celluloid tape to prevent their escape. Chambers were oriented in opposite directions from the previous replicate to account for any directional effect. Four replicates were performed for data analysis for both the control and treatment groups.
Data for spatial repellency, the percentage repellency, is reported at each of the respective time points in the figures and tables mentioned below in this disclosure. The percentage spatial repellency is the examination of the distribution of mosquitoes and is calculated using the following equation: […]

[2] = tested on: Northern house mosquitoes (Culex pipiens); assay: Short-term spatial repellency, static air repellency chamber; type: in vivo; details: 1 mL of 0.5% solution in acetone; for pest or weed control at 0.5 %: Culex pipiens, filter paper, air-dried 15 min
Procedure: as §1, with “that emerged” for “that were”, “days previously.” for “days post-emergent.”
as §2, with “Treated filter papers were treated with 1 mL of 0.5% solution in acetone of the terpenoid analogs created in the lab and were exposed to ambient air for 5 hours before they were introduced into the spatial chamber for testing. This is a slight modification of the method described in Example 2, so as to evaluate the residual repellent character of these compounds on a treated surface after 5 hours.” left out
Data for spatial repellency, the percentage repellency, is reported at each of the respective time points in the figures and tables mentioned below. The percentage spatial repellency is the examination of the distribution of mosquitoes and is calculated using the following equation: […]

[3] = 0.25 h, 15 min, read-out: Long-term Percentage repellency 15 min
[4] = 1.5 h, 90 min, read-out: Long-term Percentage repellency 90 min
[5] = 2.5 h, 150 min, read-out: Long-term Percentage repellency 150 min
[6] = 0.25 h, 15 min after introduction, read-out: Short-term Percentage repellency 15 min
[7] = 1.5 h, 90 min, read-out: Short-term Percentage repellency 90 min
[8] = 2.5 h, 150 min, read-out: Short-term Percentage repellency 150 min

SMILES | pest or weed control at 0.5 % [1, 3] [%] | pest or weed control at 0.5 % [1, 4] [%] | pest or weed control at 0.5 % [1, 5] [%] | pest or weed control at 0.5 % [2, 6] [%] | pest or weed control at 0.5 % [2, 7] [%] | pest or weed control at 0.5 % [2, 8] [%] | Short-term spatial repellency, in words [2] | Short-term percentage repellency 30 min [2] [%] | Long-term repellency, in words ([1]; 0.5% solution) | Short-term percentage repellency 120 min ([2]; 120 minutes) [%]
CC(C)=CCCC(C)CCO (stereo not shown) [citronellol, reference compound] | 30 | 25 | 25 | 32.5 | 80 | 87.5 |  |  |  | 
CC(C)=CCCC(C)CCOC(=O)C(C)C (stereo not shown) [Compound 2204, citronellyl isobutyrate] | -5 | 7.5 | 10 | 25 | 80 | 90 |  |  |  | 
Cc1ccc(C(C)C)c(OC(=O)C2CC2)c1 [Compound 1055A, thymol cyclopropanecarboxylate] | 0 | 32.5 | 52.5 | -10 | 87.5 | 95 | very effective spatial repellent | 58 |  | 
CCN(CC)C(=O)c1cccc(C)c1 [N,N-diethyl-meta-toluamide (DEET), N,N-diethyl-meta-toluamide, reference compound] | 32.5 | 32.5 | 45 | 20 | 50 | 56.7 |  |  |  | 
CC1CCC(C(C)C)C(OC(=O)C2CC2)C1 (stereo not shown) [Compound 1033B, menthyl cyclopropanecarboxylate] | 65 | 71.7 | 82.5 | 15 | 95 | 92.5 | very effective spatial repellent | 47.5 | much greater than DEET | 95
CC(C)=CCCC(C)CCOC(=O)C(C)(C)C (stereo not shown) [Compound 1036A, citronellyl pivalate] | 27.5 | 17.5 | 20 | 25 | 90 | 92.5 |  |  |  | 
Cc1ccc(C(C)C)c(OC=O)c1 [Compound 1107A, thymyl formate] | 25 | 17.5 | 22.5 | 35 | 80 | 75 |  |  |  | 
O=C(OC/C=C/c1ccccc1)C1CCC1 [Compound 2039, cinnamyl cyclobutanecarboxylate] | 40 | 57.5 | 60 | 30 |  |  |  |  |  | 
Cc1ccc(C(C)C)c(OC(=O)C(C)(C)F)c1 [Compound 1121A, thymyl 2-fluoroisobutyrate] | 22.5 | 50 | 65 | 77.5 | 97.5 | 97.5 |  |  |  | 
Cc1ccc(C(C)C)c(OC(=O)C2CCCCC2)c1 [Compound 2085, thymyl cyclohexanecarboxylate] | 17.5 | 35 | 50 | 17.5 | 35 | 50 |  |  |  | 
CC(C)=CCCC(C)CCOC(=O)C1(C)CCC1 (stereo not shown) [Compound 2106, citronellyl 1-methylcyclobutanecarboxylate] | 15 | 10 | 15 | 30 | 60 | 67.5 |  |  |  | 
